Drawing on paper doi:10.1101/2024.10.12.618019v1 (biorxiv, 2024), this text covers Ki for five molecules.

Targets include 5HT2A (Homo sapiens, UniProt P28223); D5 (Homo sapiens, UniProt P21918); SERT (Homo sapiens, UniProt P31645); H4 (Homo sapiens, UniProt Q9H3N8); MOR (Homo sapiens, UniProt P35372); 5HT6 (Homo sapiens, UniProt P50406); DAT (Homo sapiens, UniProt Q01959); D2 (Homo sapiens, UniProt P14416); D3 (Homo sapiens, UniProt P35462); 5HT7A (Homo sapiens, UniProt P34969); 5HT2B (Homo sapiens, UniProt P41595); NOP (Homo sapiens, UniProt P41146); H1 (Homo sapiens, UniProt P35367); 5HT5A (Homo sapiens, UniProt P47898); 5HT1E (Homo sapiens, UniProt P28566); D1 (Homo sapiens, UniProt P21728); 5HT1D (Homo sapiens, UniProt P28221); DOR (Homo sapiens, UniProt P41143).

What all share (test): biochemical
Another test has as its target T1, 5HT1A (Homo sapiens, UniProt P08908).
T1 sequence (P08908 1-422): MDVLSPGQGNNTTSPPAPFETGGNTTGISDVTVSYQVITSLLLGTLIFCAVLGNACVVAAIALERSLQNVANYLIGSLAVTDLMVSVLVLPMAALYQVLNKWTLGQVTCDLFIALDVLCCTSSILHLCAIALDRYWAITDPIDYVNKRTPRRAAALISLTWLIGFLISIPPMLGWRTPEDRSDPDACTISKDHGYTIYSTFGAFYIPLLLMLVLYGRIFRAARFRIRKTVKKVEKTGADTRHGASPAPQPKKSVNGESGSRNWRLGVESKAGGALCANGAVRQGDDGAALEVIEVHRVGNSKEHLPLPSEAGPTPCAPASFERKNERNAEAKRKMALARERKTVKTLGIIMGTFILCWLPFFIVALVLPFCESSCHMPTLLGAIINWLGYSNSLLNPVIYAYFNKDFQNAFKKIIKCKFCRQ

The next test concerns the target T2, 5HT3 (Homo sapiens, UniProt P46098).
T2 sequence (P46098 1-478): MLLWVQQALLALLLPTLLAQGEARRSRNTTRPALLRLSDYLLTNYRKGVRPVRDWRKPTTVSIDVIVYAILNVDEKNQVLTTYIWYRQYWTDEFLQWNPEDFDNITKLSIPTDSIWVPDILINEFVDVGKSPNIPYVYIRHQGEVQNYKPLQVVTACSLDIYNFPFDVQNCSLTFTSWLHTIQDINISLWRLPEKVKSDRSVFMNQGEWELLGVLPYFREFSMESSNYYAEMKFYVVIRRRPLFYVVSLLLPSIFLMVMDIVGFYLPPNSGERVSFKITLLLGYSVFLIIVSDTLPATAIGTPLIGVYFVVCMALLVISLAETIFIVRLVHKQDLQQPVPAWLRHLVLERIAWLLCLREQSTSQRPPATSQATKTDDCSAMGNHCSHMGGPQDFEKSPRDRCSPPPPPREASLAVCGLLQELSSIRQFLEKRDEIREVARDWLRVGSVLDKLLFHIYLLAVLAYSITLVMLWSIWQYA

For the next test, the target named is T3, 5HT2C (Homo sapiens, UniProt P28335).
T3 sequence (P28335 1-458): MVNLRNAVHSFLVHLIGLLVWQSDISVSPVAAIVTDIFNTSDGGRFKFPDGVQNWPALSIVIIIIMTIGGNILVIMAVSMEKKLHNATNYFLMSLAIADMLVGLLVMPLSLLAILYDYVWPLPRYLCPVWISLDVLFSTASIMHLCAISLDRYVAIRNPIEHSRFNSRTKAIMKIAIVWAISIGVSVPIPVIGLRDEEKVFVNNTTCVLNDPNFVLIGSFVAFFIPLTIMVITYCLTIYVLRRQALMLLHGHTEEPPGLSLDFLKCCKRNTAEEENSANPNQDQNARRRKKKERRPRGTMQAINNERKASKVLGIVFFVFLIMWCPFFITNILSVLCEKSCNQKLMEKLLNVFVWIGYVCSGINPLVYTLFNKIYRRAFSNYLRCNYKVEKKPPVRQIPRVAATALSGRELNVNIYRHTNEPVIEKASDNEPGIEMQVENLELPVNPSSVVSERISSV

A further test concerns the target T4, D4 (Homo sapiens, UniProt P21917).
T4 sequence (P21917 1-419): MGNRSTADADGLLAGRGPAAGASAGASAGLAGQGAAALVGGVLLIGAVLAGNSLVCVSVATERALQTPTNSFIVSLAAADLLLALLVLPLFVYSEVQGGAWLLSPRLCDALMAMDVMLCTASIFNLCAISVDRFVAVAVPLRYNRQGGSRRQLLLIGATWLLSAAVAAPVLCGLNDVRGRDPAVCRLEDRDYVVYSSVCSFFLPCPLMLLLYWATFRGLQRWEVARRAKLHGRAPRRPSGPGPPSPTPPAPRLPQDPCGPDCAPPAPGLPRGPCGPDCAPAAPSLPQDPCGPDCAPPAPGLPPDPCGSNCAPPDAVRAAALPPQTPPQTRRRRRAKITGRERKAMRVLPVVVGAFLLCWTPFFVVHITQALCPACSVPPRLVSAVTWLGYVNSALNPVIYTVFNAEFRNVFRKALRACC

Some results are limits rather than exact numbers.

Chain of SERT (P31645 whole entry): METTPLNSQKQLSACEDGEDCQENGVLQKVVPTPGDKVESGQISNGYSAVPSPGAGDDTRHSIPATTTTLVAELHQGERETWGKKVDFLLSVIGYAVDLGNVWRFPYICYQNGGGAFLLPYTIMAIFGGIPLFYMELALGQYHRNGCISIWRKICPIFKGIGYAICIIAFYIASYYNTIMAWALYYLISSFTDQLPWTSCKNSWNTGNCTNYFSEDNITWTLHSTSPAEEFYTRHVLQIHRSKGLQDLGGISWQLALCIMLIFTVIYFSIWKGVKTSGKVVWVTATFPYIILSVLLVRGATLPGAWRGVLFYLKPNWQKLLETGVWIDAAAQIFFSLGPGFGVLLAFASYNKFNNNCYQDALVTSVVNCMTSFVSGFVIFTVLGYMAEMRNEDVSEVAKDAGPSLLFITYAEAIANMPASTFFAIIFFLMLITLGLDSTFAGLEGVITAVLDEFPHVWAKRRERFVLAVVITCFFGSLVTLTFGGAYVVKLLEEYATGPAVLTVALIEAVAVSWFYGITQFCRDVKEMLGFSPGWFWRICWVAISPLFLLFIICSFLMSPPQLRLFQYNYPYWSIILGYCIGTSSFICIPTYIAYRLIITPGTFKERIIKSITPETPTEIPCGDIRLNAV
Chain of 5HT2B (P41595 whole entry): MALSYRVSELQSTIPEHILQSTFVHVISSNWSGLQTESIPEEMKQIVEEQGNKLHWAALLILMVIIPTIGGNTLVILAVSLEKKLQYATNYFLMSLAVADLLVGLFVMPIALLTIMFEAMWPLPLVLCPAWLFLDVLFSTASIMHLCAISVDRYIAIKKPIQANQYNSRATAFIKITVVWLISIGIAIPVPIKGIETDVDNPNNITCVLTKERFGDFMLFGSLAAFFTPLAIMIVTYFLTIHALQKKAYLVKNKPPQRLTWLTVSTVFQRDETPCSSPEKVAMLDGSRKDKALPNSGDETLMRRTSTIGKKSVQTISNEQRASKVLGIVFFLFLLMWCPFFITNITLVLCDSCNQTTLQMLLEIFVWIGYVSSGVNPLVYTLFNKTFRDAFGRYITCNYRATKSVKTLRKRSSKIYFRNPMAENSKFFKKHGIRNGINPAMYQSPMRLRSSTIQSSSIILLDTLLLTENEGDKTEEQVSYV
Chain of D1 (P21728 whole entry): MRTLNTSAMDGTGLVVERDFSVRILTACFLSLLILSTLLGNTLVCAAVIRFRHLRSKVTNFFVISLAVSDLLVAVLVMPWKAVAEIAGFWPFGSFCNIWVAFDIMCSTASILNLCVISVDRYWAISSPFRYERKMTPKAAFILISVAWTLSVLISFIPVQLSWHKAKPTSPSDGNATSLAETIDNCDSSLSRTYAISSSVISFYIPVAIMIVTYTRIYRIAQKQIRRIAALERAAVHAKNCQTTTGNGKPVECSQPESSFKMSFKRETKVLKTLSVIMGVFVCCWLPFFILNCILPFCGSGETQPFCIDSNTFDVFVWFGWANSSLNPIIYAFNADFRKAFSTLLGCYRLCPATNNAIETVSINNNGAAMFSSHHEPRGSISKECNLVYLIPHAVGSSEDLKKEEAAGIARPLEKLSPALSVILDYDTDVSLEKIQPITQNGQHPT
Chain of D2 (P14416 whole entry): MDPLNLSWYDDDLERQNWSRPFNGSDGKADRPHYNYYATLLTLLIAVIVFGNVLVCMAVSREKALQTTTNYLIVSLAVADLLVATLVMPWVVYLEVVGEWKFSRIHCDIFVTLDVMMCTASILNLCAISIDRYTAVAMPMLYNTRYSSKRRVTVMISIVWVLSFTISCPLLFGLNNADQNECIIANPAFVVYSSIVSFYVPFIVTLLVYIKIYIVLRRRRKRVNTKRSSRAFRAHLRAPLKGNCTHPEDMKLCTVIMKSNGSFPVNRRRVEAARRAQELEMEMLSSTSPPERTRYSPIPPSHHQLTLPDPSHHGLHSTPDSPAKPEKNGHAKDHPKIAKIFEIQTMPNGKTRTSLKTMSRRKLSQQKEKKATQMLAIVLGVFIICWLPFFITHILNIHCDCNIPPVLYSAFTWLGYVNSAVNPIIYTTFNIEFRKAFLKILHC
Chain of H1 (P35367 whole entry): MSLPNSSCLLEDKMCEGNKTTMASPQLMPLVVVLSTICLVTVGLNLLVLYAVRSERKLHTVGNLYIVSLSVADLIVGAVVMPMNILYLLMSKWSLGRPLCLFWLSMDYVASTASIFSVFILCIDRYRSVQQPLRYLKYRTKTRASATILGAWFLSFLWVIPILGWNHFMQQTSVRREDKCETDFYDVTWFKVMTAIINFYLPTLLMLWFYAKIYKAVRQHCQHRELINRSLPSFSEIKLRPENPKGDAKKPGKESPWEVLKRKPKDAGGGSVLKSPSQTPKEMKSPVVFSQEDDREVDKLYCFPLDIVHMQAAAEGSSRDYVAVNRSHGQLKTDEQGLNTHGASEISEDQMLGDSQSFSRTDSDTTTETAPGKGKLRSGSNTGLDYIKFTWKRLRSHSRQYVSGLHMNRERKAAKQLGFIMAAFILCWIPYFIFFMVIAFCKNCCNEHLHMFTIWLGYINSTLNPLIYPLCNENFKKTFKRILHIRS
Chain of 5HT7A (P34969 whole entry): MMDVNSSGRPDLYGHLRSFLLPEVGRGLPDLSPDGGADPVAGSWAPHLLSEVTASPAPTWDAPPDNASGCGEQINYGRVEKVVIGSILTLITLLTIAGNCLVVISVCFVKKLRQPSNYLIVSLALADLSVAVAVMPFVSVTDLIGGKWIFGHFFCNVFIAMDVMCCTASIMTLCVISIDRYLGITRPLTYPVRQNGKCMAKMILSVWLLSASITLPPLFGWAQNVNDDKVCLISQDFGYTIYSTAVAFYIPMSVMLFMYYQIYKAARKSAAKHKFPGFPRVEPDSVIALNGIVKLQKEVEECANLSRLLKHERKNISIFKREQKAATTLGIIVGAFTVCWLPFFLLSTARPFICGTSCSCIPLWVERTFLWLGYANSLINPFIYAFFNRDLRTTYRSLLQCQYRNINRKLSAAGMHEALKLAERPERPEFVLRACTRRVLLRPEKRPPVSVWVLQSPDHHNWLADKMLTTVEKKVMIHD
Chain of H4 (Q9H3N8 whole entry): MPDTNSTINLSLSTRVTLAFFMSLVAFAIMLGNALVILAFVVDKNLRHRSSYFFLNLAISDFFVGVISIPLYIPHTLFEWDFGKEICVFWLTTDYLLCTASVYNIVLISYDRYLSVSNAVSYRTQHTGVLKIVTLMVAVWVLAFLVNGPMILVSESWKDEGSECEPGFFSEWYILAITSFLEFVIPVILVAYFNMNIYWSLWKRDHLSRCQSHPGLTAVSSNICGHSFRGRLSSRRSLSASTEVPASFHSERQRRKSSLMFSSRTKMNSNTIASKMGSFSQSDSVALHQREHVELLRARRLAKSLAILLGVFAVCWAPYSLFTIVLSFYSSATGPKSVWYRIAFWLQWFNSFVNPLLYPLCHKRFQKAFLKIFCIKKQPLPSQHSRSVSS
Chain of 5HT1E (P28566 whole entry): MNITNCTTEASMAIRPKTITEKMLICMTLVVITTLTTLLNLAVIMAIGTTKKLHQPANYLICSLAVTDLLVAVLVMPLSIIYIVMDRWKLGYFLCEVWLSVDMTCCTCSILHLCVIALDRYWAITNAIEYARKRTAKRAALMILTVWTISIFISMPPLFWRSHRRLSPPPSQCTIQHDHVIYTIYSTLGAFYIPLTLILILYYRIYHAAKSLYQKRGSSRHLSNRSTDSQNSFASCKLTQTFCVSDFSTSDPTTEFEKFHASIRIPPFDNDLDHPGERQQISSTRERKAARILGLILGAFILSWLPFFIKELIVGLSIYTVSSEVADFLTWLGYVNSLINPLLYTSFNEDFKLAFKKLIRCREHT
Chain of NOP (P41146 whole entry): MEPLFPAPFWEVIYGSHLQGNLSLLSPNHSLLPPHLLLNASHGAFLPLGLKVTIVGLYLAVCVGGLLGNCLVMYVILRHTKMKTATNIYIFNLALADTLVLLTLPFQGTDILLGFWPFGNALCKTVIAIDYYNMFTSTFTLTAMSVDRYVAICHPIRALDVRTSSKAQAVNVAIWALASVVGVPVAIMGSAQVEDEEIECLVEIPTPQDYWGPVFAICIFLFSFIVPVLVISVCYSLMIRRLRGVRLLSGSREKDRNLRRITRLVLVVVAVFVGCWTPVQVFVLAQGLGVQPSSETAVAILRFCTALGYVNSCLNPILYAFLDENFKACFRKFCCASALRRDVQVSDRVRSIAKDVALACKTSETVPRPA
Chain of 5HT1D (P28221 whole entry): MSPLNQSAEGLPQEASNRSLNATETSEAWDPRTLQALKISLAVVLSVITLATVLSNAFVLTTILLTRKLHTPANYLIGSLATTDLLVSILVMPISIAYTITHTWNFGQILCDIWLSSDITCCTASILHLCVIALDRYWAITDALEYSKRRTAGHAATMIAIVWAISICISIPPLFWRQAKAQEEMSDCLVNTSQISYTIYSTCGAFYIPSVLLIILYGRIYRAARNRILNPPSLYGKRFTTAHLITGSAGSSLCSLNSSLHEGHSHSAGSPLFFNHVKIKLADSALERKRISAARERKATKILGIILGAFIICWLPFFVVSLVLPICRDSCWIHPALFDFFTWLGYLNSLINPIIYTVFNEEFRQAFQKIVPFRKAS
Chain of 5HT6 (P50406 whole entry): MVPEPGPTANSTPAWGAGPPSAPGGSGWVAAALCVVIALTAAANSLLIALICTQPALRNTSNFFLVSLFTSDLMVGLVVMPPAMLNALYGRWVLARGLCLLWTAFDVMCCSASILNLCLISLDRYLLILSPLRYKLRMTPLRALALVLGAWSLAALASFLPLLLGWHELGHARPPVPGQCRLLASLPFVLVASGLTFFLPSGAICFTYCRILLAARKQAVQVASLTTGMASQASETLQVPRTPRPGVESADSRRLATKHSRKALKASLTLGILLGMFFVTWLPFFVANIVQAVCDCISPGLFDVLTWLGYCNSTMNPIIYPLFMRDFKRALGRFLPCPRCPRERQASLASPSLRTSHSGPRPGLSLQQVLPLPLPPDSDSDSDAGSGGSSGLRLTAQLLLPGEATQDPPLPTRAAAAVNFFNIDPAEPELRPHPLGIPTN

The Ki is the equilibrium dissociation constant of an inhibitor or competing ligand from its target. The low end stands for a stronger hold on the target, the high end for a looser hold on the target. On to `Cc1cc(C(N)=O)cc(-c2cc(F)c(CNC3Cc4ccccc4C3)c(F)c2)c1` [1A], for which the Ki on 5HT2A was greater than 10000 nM; on 5HT1A, greater than 10000 nM; on D5, greater than 10000 nM; at SERT, 523 nM; at 5HT3 it was greater than 10000 nM; on H4, greater than 10000 nM. For the same molecule, the Ki on MOR is 8.3 nM; on 5HT6, greater than 10000 nM; on 5HT2C, greater than 10000 nM; on DAT it was 533 nM; on D2 it was 6530 nM; at D4, 594 nM. The Ki is 466 nM at D3; greater than 10000 nM at 5HT7A; greater than 10000 nM on 5HT2B; greater than 10000 nM at NOP; greater than 10000 nM at H1; greater than 10000 nM at 5HT5A. Also, the Ki on 5HT1E was greater than 10000 nM; on D1, 998 nM.

For the molecule `Cc1cc(C(N)=O)cc(-c2ccc(CNC3Cc4ccccc4C3)c(F)c2)c1` [2A], the Ki at 5HT2A was greater than 10000 nM; at 5HT1A it was greater than 10000 nM; on D5, greater than 10000 nM; on SERT, 174 nM; on 5HT3, greater than 10000 nM; on 5HT1D it was 1660 nM. Moreover, the Ki is 350 nM on DOR; greater than 10000 nM at H4; 9.2 nM at MOR; greater than 10000 nM at 5HT6; greater than 10000 nM on 5HT2C; greater than 10000 nM at D2. Besides, the Ki was 748 nM at D4; 748 nM on D3; 891 nM at 5HT7A; greater than 10000 nM at 5HT2B; greater than 10000 nM on NOP; greater than 10000 nM on H1. Besides, the values for the Ki at 5HT5A, on 5HT1E and on D1 were greater than 10000 nM, greater than 10000 nM and 1270 nM, respectively.

As for `Cc1cc(C(N)=O)cc(-c2ccc(CNC3Cc4ccccc4C3)cc2)c1` [3A], the Ki on 5HT2A was greater than 10000 nM; on 5HT1A, greater than 10000 nM; on D5, greater than 10000 nM; at SERT, 310 nM; on 5HT3, greater than 10000 nM; at 5HT1D it was greater than 10000 nM. The inhibition constant (Ki) on H4 is greater than 10000 nM; on MOR it was 7.8 nM; on 5HT6 it was greater than 10000 nM; at 5HT2C, 2270 nM; at DAT it was 850 nM; at D2 it was greater than 10000 nM. The Ki at D4 is 27.2 nM; at D3 it was greater than 10000 nM; at 5HT7A, 977 nM; on 5HT2B it was greater than 10000 nM; on NOP, greater than 10000 nM; on H1, greater than 10000 nM. Further, the values for the inhibition constant (Ki) on 5HT5A and at D1 were greater than 10000 nM and 1320 nM, respectively.

With `Cc1cc(-c2cc(F)c(CNC3Cc4ccccc4C3)c(F)c2)cc(-c2ncn[nH]2)c1` [4A], the inhibitory constant (Ki) is greater than 10000 nM at 5HT2A; greater than 10000 nM on 5HT1A; greater than 10000 nM at D5; 334 nM at SERT; greater than 10000 nM at 5HT3; greater than 10000 nM at H4. For the same molecule, the Ki is greater than 10000 nM on 5HT6; greater than 10000 nM at 5HT2C; 497 nM on DAT; greater than 10000 nM on D2; 1770 nM at D4; greater than 10000 nM at D3. Besides, the Ki at 5HT7A was greater than 10000 nM; on 5HT2B it was 484 nM; on NOP it was greater than 10000 nM; at H1 it was greater than 10000 nM; at 5HT5A, greater than 10000 nM; at D1, 1870 nM.

Consider `Cc1cc(-c2ccc(CNC3Cc4ccccc4C3)cc2)cc(-c2nc[nH]n2)c1` [6A], for which the Ki was 1000 nM at 5HT2A; greater than 10000 nM on 5HT1A; greater than 10000 nM at D5; 130 nM at SERT; greater than 10000 nM at 5HT3; 1320 nM at 5HT1D. The Ki was 98 nM on DOR; greater than 10000 nM on H4; 4.2 nM on MOR; greater than 10000 nM on 5HT6; 470 nM on 5HT2C; 287 nM at DAT. Also, the Ki on D2 was greater than 10000 nM; at D4 it was 1770 nM; on D3 it was greater than 10000 nM; on 5HT7A, 747 nM; at 5HT2B it was 826 nM; on NOP, 167 nM. Besides, the Ki on H1 was 1450 nM; at 5HT5A, 3940 nM; on 5HT1E, greater than 10000 nM; on D1, 716 nM.
